Reference: patent publication US20090291066A1, “COMPOSITION AND METHOD OF TREATING FACIAL SKIN DEFECT” (priority 2008, published 2009)

Key:
facial preadipocytes = assay: Differentiation of human primary facial preadipocytes (lipid droplet formation, oil red O); assay type: cell-based; settings: cell source not given
Method: Human primary preadipocytes from facial and abdominal skin samples, obtained with informed consent, were isolated and cultured following a published procedure (Crandall et al, Endocrinology 140:154-8, 1999). Briefly, samples from abdominal or facial operations were subjected to enzymatic digestion in Krebs-Ringer-bicarbonate buffer (pH 7.4) containing 6 mM glucose and 2 mg/mL collagenase. After this initial enzymatic digestion, the content of the flask was passed through a sterile, 230-micron stainless steel tissue sieve (Cellector, Bellco Glass Inc., Vineland, N.J.) into a 50-mL sterile, plastic test tube. […]
All differentiation agents (IBMX, dexamethasone, insulin, and rosiglitazone) were added to the culture media 24 hours after the cells were seeded. […] Subsequently, the cultures were incubated with oil red O (a dye that binds to neutral lipids); the dye was then extracted and quantified by spectrophotometry. […]
Human primary preadipocytes were isolated and cultured as described in Example 2. […] Subsequently, the cultures were incubated with oil red O (a dye that binds to neutral lipids); the dye was then extracted and quantified by spectrophotometry. […]

serum proteins = settings: in vivo; cited from earlier work

Compound	adipogenesis of preadipocytes (facial preadipocytes; added in the media at 5-50 μM in addition to IBMX, insulin and dexamethasone)	effect on the differentiation process (facial preadipocytes; alone, without IBMX and dexamethasone)	bound to serum proteins (serum proteins)
CCCCC/C=C\C/C=C\CCCCCCCC(=O)O [Linoleic acid, linoleic acid]	can enhance adipogenesis of preadipocytes	could not affect the differentiation process	–
CN(CCOc1ccc(CC2SC(=O)NC2=O)cc1)c1ccccn1 (stereo not drawn) [Rosiglitazone, rosiglitazone]	–	–	99.8%
